Experimental findings from patent US20090062294A1, “HETEROARYL-SUBSTITUTED UREA MODULATORS OF FATTY ACID AMIDE HYDROLASE” (priority 2007, published 2009) are described below.

One assay has as its target T1, FAAH (Homo sapiens, UniProt O00519).
T1 sequence (O00519 1-579): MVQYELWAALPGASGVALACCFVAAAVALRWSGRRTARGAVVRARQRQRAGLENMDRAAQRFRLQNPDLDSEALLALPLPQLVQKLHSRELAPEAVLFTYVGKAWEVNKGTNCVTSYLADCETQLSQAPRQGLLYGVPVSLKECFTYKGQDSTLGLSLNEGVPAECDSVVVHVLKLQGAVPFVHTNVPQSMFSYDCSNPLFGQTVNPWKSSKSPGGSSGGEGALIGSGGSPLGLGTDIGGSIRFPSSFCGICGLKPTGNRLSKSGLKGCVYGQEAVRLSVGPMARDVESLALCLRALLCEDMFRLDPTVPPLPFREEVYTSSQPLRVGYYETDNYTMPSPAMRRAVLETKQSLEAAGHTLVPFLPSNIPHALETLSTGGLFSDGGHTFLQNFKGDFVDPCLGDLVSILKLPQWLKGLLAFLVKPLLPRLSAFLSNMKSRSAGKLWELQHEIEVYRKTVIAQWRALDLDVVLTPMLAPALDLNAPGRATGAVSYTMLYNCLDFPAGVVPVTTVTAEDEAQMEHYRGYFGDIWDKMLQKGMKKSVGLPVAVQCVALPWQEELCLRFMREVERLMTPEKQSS
The assay can be described thus: Assay Method 1: FAAH assay, 3H-anandamide hydrolysis in homogenate of T84 cells or SK-N-MC cells transfected with human FAAH. The note with it: average of results, > = solubility limit or highest concentration tested. The format is biochemical. In outline:
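Hydrolysis of ^3H-anandamide (80 nM final, added last) was measured over 1 h at rt, using test compound with homogenate of T84 cells or human FAAH-transfected SK-N-MC cells. The homogenization buffer was 125 mM Tris, 1 mM EDTA, 0.02% Triton X-100, pH 9. Unbound labelled ethanolamine was passed through charcoal filters and scintillation-counted.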

A further assay concerns the target T2, rat FAAH (Rattus norvegicus, UniProt P97612).
T2 sequence (P97612 1-579): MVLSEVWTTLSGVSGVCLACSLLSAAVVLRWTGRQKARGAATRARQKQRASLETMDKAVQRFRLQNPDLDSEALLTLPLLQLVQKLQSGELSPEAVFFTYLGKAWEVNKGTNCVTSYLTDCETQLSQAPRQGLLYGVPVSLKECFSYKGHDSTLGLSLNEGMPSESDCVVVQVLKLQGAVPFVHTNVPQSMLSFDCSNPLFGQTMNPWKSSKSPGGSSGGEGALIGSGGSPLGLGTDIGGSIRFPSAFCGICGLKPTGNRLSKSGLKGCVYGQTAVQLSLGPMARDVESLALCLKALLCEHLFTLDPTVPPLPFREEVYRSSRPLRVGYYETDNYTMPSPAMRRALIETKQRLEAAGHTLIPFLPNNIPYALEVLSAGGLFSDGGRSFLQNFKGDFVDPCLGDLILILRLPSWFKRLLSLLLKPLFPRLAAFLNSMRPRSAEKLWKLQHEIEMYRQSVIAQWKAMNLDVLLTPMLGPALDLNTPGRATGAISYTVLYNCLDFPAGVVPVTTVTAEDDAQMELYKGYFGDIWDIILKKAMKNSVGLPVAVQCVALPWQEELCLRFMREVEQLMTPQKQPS
The assay can be described thus: Assay Method 2: FAAH assay, 3H-anandamide hydrolysis in homogenate of SK-N-MC cells transfected with rat FAAH. Particulars: average of results, > = solubility limit or highest concentration tested. The format is biochemical. In outline:
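Read-out is scintillation counting of [3H]-ethanolamine passing through activated charcoal, after 1 h at rt with 80 nM final [3H]-AEA. Enzyme source: lysate of G418-selected SK-N-MC clones expressing rat FAAH, homogenized in Tris/EDTA/glycerol/0.02% Triton buffer, pH 9.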

As a reminder, the IC50 is the midpoint of a concentration-inhibition curve. Higher therefore signals a need for much substance. With `O=C(Nc1noc2ccccc12)N1CCN(Cc2ccc(OC(F)(F)F)c(Cl)c2)CC1` [Example 107, N-1,2-Benzisoxazol-3-yl-4-[3-chloro-4-(trifluoromethoxy)benzyl]-piperazine-1-carboxamide], the values for the IC50 on FAAH and on rat FAAH were 80 nM and 37 nM, respectively.
Take `O=C(Nc1noc2ccccc12)N1CCN(Cc2ccc(OC(F)(F)F)c(F)c2)CC1` [Example 108, N-1,2-Benzisoxazol-3-yl-4-[3-fluoro-4-(trifluoromethoxy)benzyl]-piperazine-1-carboxamide]: the IC50 on FAAH was determined as 140 nM; on rat FAAH, 50 nM.
For the molecule `O=C(Nc1noc2ccccc12)N1CCN(Cc2cccc(Oc3ccccc3)c2)CC1` [Example 110, N-1,2-Benzisoxazol-3-yl-4-(3-phenoxybenzyl)piperazine-1-carboxamide], the results for the IC50 against FAAH and at rat FAAH were 45 nM and 42 nM, respectively.
On the same counts, the results for `O=C(Nc1noc2ccccc12)N1CCN(Cc2ccc(Cl)c(Cl)c2)CC1` [Example 111, N-1,2-Benzisoxazol-3-yl-4-(3,4-dichlorobenzyl)piperazine-1-carboxamide] are 35 nM and 40 nM.
On the same counts, the results for `O=C(Nc1noc2ccccc12)N1CCN(Cc2ccc(OCc3ccccc3)cc2)CC1` [Example 112, N-1,2-Benzisoxazol-3-yl-4-[4-(benzyloxy)benzyl]piperazine-1-carboxamide] are 40 nM and 270 nM.
On the same counts, the results for `O=C(Nc1noc2ccccc12)N1CCN(Cc2cc3ccccc3s2)CC1` [Example 113, N-1,2-Benzisoxazol-3-yl-4-(1-benzothiophen-2-ylmethyl)piperazine-1-carboxamide] are 20 nM and 30 nM.
In the case of `O=C(Nc1noc2ccccc12)N1CCN(Cc2cccc(Oc3ccc4ncccc4c3)c2)CC1` [Example 114, N-1,2-Benzisoxazol-3-yl-4-[3-(quinolin-6-yloxy)benzyl]piperazine-1-carboxamide], the IC50 against FAAH and against rat FAAH was 20 nM each time.
As to `O=C(Nc1noc2ccccc12)N1CCN(Cc2ccc(Br)c(F)c2)CC1` [Example 115, N-1,2-Benzisoxazol-3-yl-4-(4-bromo-3-fluorobenzyl)piperazine-1-carboxamide], the IC50 on FAAH is 40 nM; against rat FAAH, 25 nM.
For the molecule `O=C(Nc1noc2ccccc12)N1CCN(Cc2ccc3c(c2)OCO3)CC1` [Example 116, N-1,2-Benzisoxazol-3-yl-4-(1,3-benzodioxol-5-ylmethyl)piperazine-1-carboxamide], the values for the IC50 against FAAH and against rat FAAH were 400 nM and 760 nM, respectively.
Take `O=C(Nc1noc2ccccc12)N1CCN(Cc2cnc3ccccc3c2)CC1` [Example 117, N-1,2-Benzisoxazol-3-yl-4-(quinolin-3-ylmethyl)piperazine-1-carboxamide]: the results for the 50% inhibitory concentration (IC50) at FAAH and at rat FAAH were 130 nM and 440 nM, respectively.
For `O=C(Nc1noc2ccccc12)N1CCN(Cc2ccc3[nH]ccc3c2)CC1` [Example 118, N-1,2-Benzisoxazol-3-yl-4-(1H-indol-5-ylmethyl)piperazine-1-carboxamide], the IC50 was found to be 1800 nM against FAAH and 8000 nM on rat FAAH.
As for `O=C(Nc1noc2ccccc12)N1CCN(Cc2cccc(Oc3ccc4ccccc4c3)c2)CC1` [Example 119, N-1,2-Benzisoxazol-3-yl-4-[3-(naphthalen-2-yloxy)benzyl]piperazine-1-carboxamide], the IC50 was determined as 45 nM against FAAH and 9 nM against rat FAAH.
With `O=C(Nc1noc2ccccc12)N1CCN(Cc2ccc(Br)cc2)CC1` [Example 120, N-1,2-Benzisoxazol-3-yl-4-(4-bromobenzyl)piperazine-1-carboxamide], the figures for the IC50 against FAAH and at rat FAAH were 80 nM and 120 nM, respectively.
On to `O=C(Nc1noc2ccccc12)N1CCN(Cc2ccc(Br)c(Br)c2)CC1` [Example 121, N-1,2-Benzisoxazol-3-yl-4-(3,4-dibromobenzyl)piperazine-1-carboxamide], for which the IC50 on FAAH amounted to 17 nM; against rat FAAH, 25 nM.
Taken in the same sequence, the figures for `O=C(Nc1noc2ccccc12)N1CCN(Cc2cccc(Oc3ccccc3Cl)c2)CC1` [Example 122, N-1,2-Benzisoxazol-3-yl-4-[3-(2-chlorophenoxy)benzyl]piperazine-1-carboxamide] were 148 nM and 115 nM.
Consider `O=C(Nc1noc2ccccc12)N1CCN(Cc2ccc3ccccc3c2)CC1` [Example 123, 4-Naphthalen-2-ylmethyl-piperazine-1-carboxylic acid benzo[d]isoxazol-3-ylamide], for which the IC50 on FAAH was found to be 20 nM; against rat FAAH, 40 nM.
On to `O=C(Nc1noc2ccccc12)N1CCN(Cc2ccc3ccccc3n2)CC1` [Example 124, 4-Quinolin-2-ylmethyl-piperazine-1-carboxylic acid benzo[d]isoxazol-3-ylamide], for which the IC50 against FAAH was 55 nM; at rat FAAH, 200 nM.
`N#Cc1ccc(Oc2cccc(CN3CCN(C(=O)Nc4noc5ccccc45)CC3)c2)cc1` [Example 125, 4-[3-(4-Cyano-phenoxy)-benzyl]-piperazine-1-carboxylic acid benzo[d]isoxazol-3-ylamide]: the IC50 against FAAH turned out to be 15 nM; at rat FAAH, 12 nM.
Turning to `O=C(Nc1noc2ccccc12)N1CCN(Cc2cc3ccccc3o2)CC1` [Example 126, 4-Benzofuran-2-ylmethyl-piperazine-1-carboxylic acid benzo[d]isoxazol-3-ylamide], the IC50 amounted to 60 nM against FAAH and 200 nM against rat FAAH.
`O=C(Nc1noc2ccccc12)N1CCN(Cc2cccc(Oc3cccc(Cl)c3)c2)CC1` [Example 127, N-1,2-Benzisoxazol-3-yl-4-[3-(3-chlorophenoxy)benzyl]piperazine-1-carboxamide]: the IC50 on FAAH and on rat FAAH was 40 nM throughout.
As to `N#Cc1ccc(Oc2cccc(CN3CCN(C(=O)Nc4noc5ccccc45)CC3)c2)cc1C(F)(F)F` [Example 128, N-1,2-Benzisoxazol-3-yl-4-{3-[4-cyano-3-(trifluoromethyl)phenoxy]benzyl}piperazine-1-carboxamide], the IC50 at FAAH turned out to be 230 nM; on rat FAAH, 400 nM.
For `N#Cc1cccc(Oc2cccc(CN3CCN(C(=O)Nc4noc5ccccc45)CC3)c2)c1` [Example 129, N-1,2-Benzisoxazol-3-yl-4-[3-(3-cyanophenoxy)benzyl]piperazine-1-carboxamide], the IC50 against FAAH amounted to 80 nM; at rat FAAH, 120 nM.
On to `O=C(Nc1noc2ccccc12)N1CCN(Cc2cccc(Oc3ccc(SC(F)(F)F)cc3)c2)CC1` [Example 130, N-1,2-Benzisoxazol-3-yl-4-(3-{4-[(trifluoromethyl)sulfanyl]phenoxy}-benzyl)piperazine-1-carboxamide], for which the IC50 at FAAH was found to be 20 nM; against rat FAAH, 4 nM.
On to `O=C(Nc1noc2ccccc12)N1CCN(Cc2cccc(Oc3ccc4c(c3)OC(F)(F)O4)c2)CC1` [Example 131, N-1,2-Benzisoxazol-3-yl-4-{3-[(2,2-difluoro-1,3-benzodioxol-5-yl)oxy]benzyl}piperazine-1-carboxamide], for which the IC50 at FAAH turned out to be 7 nM; on rat FAAH, 4 nM.
On to `O=C(Nc1noc2ccccc12)N1CCN(Cc2cccc(Oc3ccc(S(=O)(=O)C(F)(F)F)cc3)c2)CC1` [Example 132, N-1,2-Benzisoxazol-3-yl-4-(3-{4-[(trifluoromethyl)sulfonyl]phenoxy}-benzyl)piperazine-1-carboxamide], for which the IC50 on FAAH was found to be 23 nM; against rat FAAH, 5 nM.
Regarding `O=C(Nc1noc2ccccc12)N1CCN(Cc2cccc(C#Cc3ccccc3)c2)CC1` [Example 133, N-1,2-Benzisoxazol-3-yl-4-{[3-(phenylethynyl)phenyl]methyl}piperazine-1-carboxamide], the figures for the IC50 on FAAH and against rat FAAH were 24 nM and 115 nM, respectively.
With `O=C(Nc1ccon1)N1CCN(Cc2cccc(Oc3ccc(OC(F)(F)F)cc3)c2)CC1` [Example 134, N-Isoxazol-3-yl-4-{3-[4-(trifluoromethoxy)phenoxy]benzyl}piperazine-1-carboxamide], the results for the IC50 against FAAH and against rat FAAH were 10 nM and 100 nM, respectively.
